This is an account of results in ChEMBL document CHEMBL3046228, “Synthesis of new bicyclo[4.1.0]heptane-2,4-dione derivatives and their herbicidal activity” (J Pestic Sci, 2007).

One data set deals with Setaria faberi. Description: Herbicidal activity against Setaria faberi (Giant Foxtail) assessed as induction of plant damage applied through foliar spraying. It is filed as functional.
In a further data set the test system is Zea mays. The data set is described as follows: Phytotoxicity against Zea mays (maize) assessed as induction of plant damage applied through foliar spraying. It is filed as organism-based. Conditions: in vivo, other.
The next data set deals with Digitaria sanguinalis. Description: Herbicidal activity against Digitaria sanguinalis (hairy crabgrass) assessed as induction of plant damage applied through foliar spraying. The class given is functional.
In the next data set the test system is Amaranthus retroflexus. The data set is described as follows: Herbicidal activity against Amaranthus retroflexus assessed as induction of plant damage applied through foliar spraying. The class given is functional.
For a further data set, the system named is Abutilon theophrasti. Description: Herbicidal activity against Abutilon theophrasti (velvetleaf) assessed as induction of plant damage applied through foliar spraying. It is filed as functional.

`CC1CC(=O)C(C(=O)c2ccc(Cl)cc2[N+](=O)[O-])C(=O)C1C` (stereo not given): the ED80 turned out to be 31 gAi/ha in the data set on Setaria faberi, 31 gAi/ha with Digitaria sanguinalis, 500 gAi/ha with Amaranthus retroflexus and 125 gAi/ha with Abutilon theophrasti. Further, the ED0 with Zea mays worked out at 125 gAi/ha.
`CCCCC1CC(=O)C(C(=O)c2ccc(Cl)cc2[N+](=O)[O-])C(=O)C1` (stereo not given): the ED0 in the data set with Zea mays came to 1000 gAi/ha. Further, the figures for the ED80 in the data set with Digitaria sanguinalis, in the data set on Amaranthus retroflexus and in the data set with Abutilon theophrasti were above 2000 gAi/ha, above 2000 gAi/ha and 500 gAi/ha, respectively.
As for `CS(=O)(=O)c1ccc(C(=O)C2C(=O)CCCC2=O)c(Cl)c1` [SULCOTRIONE], the ED80 amounted to 250 gAi/ha in the data set on Setaria faberi, 125 gAi/ha in the data set with Digitaria sanguinalis, 250 gAi/ha in the data set on Amaranthus retroflexus and 16 gAi/ha with Abutilon theophrasti. For the same molecule, the ED0 in the data set with Zea mays was found to be 250 gAi/ha.
Regarding `CC1(C)CC(=O)C(C(=O)c2ccc(Cl)cc2[N+](=O)[O-])C(=O)C1`, in the data set with Zea mays, the ED0 came to 500 gAi/ha. Moreover, the ED80 in the data set on Digitaria sanguinalis is given as 250 gAi/ha; with Amaranthus retroflexus, 2000 gAi/ha; in the data set on Abutilon theophrasti, 125 gAi/ha.
In the case of `COCC1CC(=O)C(C(=O)c2ccc(Cl)cc2[N+](=O)[O-])C(=O)C1` (stereo not given), the ED0 in the data set on Zea mays is reported as 125 gAi/ha. Further, the figures for the ED80 in the data set on Digitaria sanguinalis, with Amaranthus retroflexus and with Abutilon theophrasti were 500 gAi/ha, 125 gAi/ha and 125 gAi/ha, respectively.
`COc1ccc(C(=O)C2C(=O)C[C@H]3C[C@H]3C2=O)c([N+](=O)[O-])c1` (relative stereo): the ED80 in the data set on Setaria faberi is 125 gAi/ha; with Digitaria sanguinalis, 125 gAi/ha; in the data set with Amaranthus retroflexus, 500 gAi/ha; in the data set on Abutilon theophrasti it was 125 gAi/ha. Also, the ED0 with Zea mays is given as 31 gAi/ha.
Consider `O=C1CCCC(=O)C1C(=O)c1ccc(Cl)cc1[N+](=O)[O-]`, for which the ED80 in the data set with Setaria faberi came to 500 gAi/ha; in the data set with Digitaria sanguinalis, 250 gAi/ha; in the data set with Amaranthus retroflexus, 125 gAi/ha; with Abutilon theophrasti, 31 gAi/ha. The ED0 in the data set on Zea mays was 500 gAi/ha.
On to `CCCC1CC(=O)C(C(=O)c2ccc(Cl)cc2[N+](=O)[O-])C(=O)C1` (stereo not given), for which the ED0 in the data set on Zea mays came out at 125 gAi/ha. For the same molecule, the ED80 is 500 gAi/ha in the data set on Digitaria sanguinalis, 2000 gAi/ha in the data set with Amaranthus retroflexus and above 2000 gAi/ha with Abutilon theophrasti.
For the molecule `CS(=O)(=O)c1ccc(C(=O)C2C(=O)C[C@H]3C[C@H]3C2=O)c([N+](=O)[O-])c1` (relative stereo), the ED80 in the data set with Setaria faberi stood at 250 gAi/ha; in the data set with Digitaria sanguinalis, 125 gAi/ha; in the data set on Amaranthus retroflexus, 63 gAi/ha; with Abutilon theophrasti it was 16 gAi/ha. Further, in the data set with Zea mays, the ED0 is on record as 250 gAi/ha.
Turning to `CC1CC(=O)C(C(=O)c2ccc(Cl)cc2[N+](=O)[O-])C(=O)C1` (stereo not given), the ED80 is on record as 16 gAi/ha with Setaria faberi, 31 gAi/ha with Digitaria sanguinalis, 125 gAi/ha in the data set on Amaranthus retroflexus and 125 gAi/ha in the data set with Abutilon theophrasti. Besides, in the data set with Zea mays, the ED0 was found to be 63 gAi/ha.
For `O=C1C[C@H]2C[C@H]2C(=O)C1C(=O)c1ccc(C(F)(F)F)cc1[N+](=O)[O-]` (relative stereo), the ED80 came out at 63 gAi/ha with Setaria faberi, 63 gAi/ha in the data set on Digitaria sanguinalis, 63 gAi/ha in the data set with Amaranthus retroflexus and 16 gAi/ha in the data set on Abutilon theophrasti. The ED0 with Zea mays was 31 gAi/ha.
In the case of `CSCC1CC(=O)C(C(=O)c2ccc(Cl)cc2[N+](=O)[O-])C(=O)C1` (stereo not given), the ED80 in the data set with Setaria faberi stood at 125 gAi/ha; with Digitaria sanguinalis, 250 gAi/ha; with Amaranthus retroflexus, 500 gAi/ha; with Abutilon theophrasti, 63 gAi/ha. Further, the ED0 with Zea mays turned out to be 125 gAi/ha.
As to `O=C1CC2CCCC2C(=O)C1C(=O)c1ccc(Cl)cc1[N+](=O)[O-]` (stereo not given), the ED80 in the data set with Setaria faberi is listed as 500 gAi/ha; in the data set with Digitaria sanguinalis it was 250 gAi/ha; with Amaranthus retroflexus, 500 gAi/ha; with Abutilon theophrasti it was 500 gAi/ha. For the same molecule, the ED0 in the data set on Zea mays is on record as 63 gAi/ha.
As to `Cc1cc(S(C)(=O)=O)ccc1C(=O)C1C(=O)C[C@H]2C[C@H]2C1=O` (relative stereo), the ED80 in the data set with Setaria faberi worked out at 250 gAi/ha; with Digitaria sanguinalis it was 250 gAi/ha; in the data set on Amaranthus retroflexus, 63 gAi/ha; in the data set with Abutilon theophrasti it was 16 gAi/ha. Further, in the data set on Zea mays, the ED0 is 250 gAi/ha.
As to `O=C1CC2CCCCC2C(=O)C1C(=O)c1ccc(Cl)cc1[N+](=O)[O-]` (stereo not given), the ED80 in the data set with Setaria faberi is 2000 gAi/ha; in the data set on Digitaria sanguinalis, 500 gAi/ha; in the data set with Amaranthus retroflexus it was 2000 gAi/ha; in the data set with Abutilon theophrasti, 500 gAi/ha. Moreover, the ED0 in the data set with Zea mays turned out to be 500 gAi/ha.
Consider `CS(=O)(=O)c1ccc(C(=O)C2C(=O)C[C@H]3C[C@H]3C2=O)c(Cl)c1` (relative stereo), for which the ED80 in the data set on Setaria faberi was determined as 63 gAi/ha; in the data set with Digitaria sanguinalis it was 125 gAi/ha; with Amaranthus retroflexus, 31 gAi/ha; in the data set on Abutilon theophrasti, 16 gAi/ha. Moreover, the ED0 in the data set on Zea mays was determined as 125 gAi/ha.
As for `CC1CCC(=O)C(C(=O)c2ccc(Cl)cc2[N+](=O)[O-])C1=O` (stereo not given), the ED0 in the data set on Zea mays stood at 125 gAi/ha. For the same molecule, the ED80 in the data set with Digitaria sanguinalis turned out to be 63 gAi/ha; with Amaranthus retroflexus, 250 gAi/ha; in the data set on Abutilon theophrasti it was 63 gAi/ha.
On to `CSc1ccc(C(=O)C2C(=O)C[C@H]3C[C@H]3C2=O)c([N+](=O)[O-])c1` (relative stereo), for which the ED80 is on record as 250 gAi/ha in the data set on Setaria faberi, 63 gAi/ha in the data set with Digitaria sanguinalis, 31 gAi/ha in the data set with Amaranthus retroflexus and 16 gAi/ha in the data set with Abutilon theophrasti. Further, the ED0 with Zea mays was determined as 125 gAi/ha.
The matching figures for `O=C1C[C@H]2C[C@H]2C(=O)C1C(=O)c1ccc(Cl)cc1[N+](=O)[O-]` (relative stereo): 125 gAi/ha, 63 gAi/ha, 63 gAi/ha, 16 gAi/ha and 16 gAi/ha.
